{"source": "patent US11780868B1", "about": "“Homoleptic metal coordination complexes as antifungal agents” (King Abdulaziz University, priority 2023, dated 2023)", "format_in_all_cases": "cell-based, Candida albicans", "key": {"C. albicans 4085": {"system": "C. albicans 4085", "experiment": "Broth microdilution MIC/MFC (CLSI M27-A4)", "details": "C. albicans 4085 (Flz resistant)", "procedure": "(§1) In this work, nine strains of C. albicans procured from Charlotte Maxeke Johannesburg Academic Hospital under ethical clearance number M000402 were employed (Table 1). All the C. albicans strains were preserved at −70° C. deep freezer in 50% (v/v) anhydrous glycerol (Sigma-Aldrich St. Louis, MO, U.S.A.). For conducting experiments, cultures were revived in Sabouraud Dextrose broth (SDB; Merck, Germany) at 37° C. and 120 rpm for 24 h. Additionally, the RPMI 1640 medium and MOPS (Sigma-Aldrich, USA) were prepared as described by the Clinical and Laboratory Standards Institute (CLSI).\n(§2) The activity of C1 against Candida species (n=9) was first estimated in terms of minimum inhibitory concentration (MIC) and minimum fungicidal concentration (MFC). […] Briefly, stock solutions of Flz (used as reference; Sigma-Aldrich St. Louis, MO, U.S.A.) and the synthesized compound was prepared in 1% dimethyl sulfoxide (DMSO; Sigma-Aldrich St. Louis, MO, U.S.A.) and the test concentrations were formulated in RPMI 1640-MOPS medium. A two-fold dilution of the compound (1250-0.61 μg/mL) and reference drug (128-0.062 μg/mL) was prepared in 96 well plates which were then seeded with C. albicans inoculum (1×10^6 cells/mL) and incubated at 37° C. for 24 h. In every set of experiments, sterility control, 1% DMSO as negative control and growth control were included. Growth was quantified by reading the optical density at 620 nm in a UV-1800 SHIMADZU spectrophotometer (Shimadzu Corporation, Japan). The MIC was determined as the lowest concentration that inhibited the growth of Candida strains. To determine MFC, each well without visible growth was subcultured onto the SDA plates for 24 hours at 37° C. The lowest concentration killing ≥99.9% of Candida was taken as the MFC value of the test compound."}, "C. albicans 4106": {"system": "C. albicans 4106", "experiment": "Broth microdilution MIC/MFC (CLSI M27-A4)", "details": "C. albicans 4106 (Flz resistant)", "procedure": "as §1, §2"}, "C. albicans 4175": {"system": "C. albicans 4175", "experiment": "Broth microdilution MIC/MFC (CLSI M27-A4)", "details": "C. albicans 4175 (Flz sensitive)", "procedure": "as §1, §2"}, "C. albicans 4180": {"system": "C. albicans 4180", "experiment": "Broth microdilution MIC/MFC (CLSI M27-A4)", "details": "C. albicans 4180 (Flz sensitive)", "procedure": "as §1, §2"}, "C. albicans 4251 [1]": {"system": "C. albicans 4251", "experiment": "Broth microdilution MIC/MFC (CLSI M27-A4)", "details": "C. albicans 4251 (Flz sensitive)", "procedure": "as §1, §2"}, "C. albicans 4324": {"system": "C. albicans 4324", "experiment": "Broth microdilution MIC/MFC (CLSI M27-A4)", "details": "C. albicans 4324 (Flz resistant)", "procedure": "as §1, §2"}, "C. albicans 4554": {"system": "C. albicans 4554", "experiment": "Broth microdilution MIC/MFC (CLSI M27-A4)", "details": "C. albicans 4554 (Flz sensitive)", "procedure": "as §1, §2"}, "C. albicans 5112 [2]": {"system": "C. albicans 5112", "experiment": "Broth microdilution MIC/MFC (CLSI M27-A4)", "details": "C. albicans 5112 (Flz resistant)", "procedure": "as §1, §2"}, "C. albicans SC5314": {"system": "C. albicans SC5314", "experiment": "Broth microdilution MIC/MFC (CLSI M27-A4)", "details": "C. albicans SC5314 (control)", "procedure": "as §1, §2"}, "C. albicans 4251 [3]": {"system": "C. albicans 4251", "experiment": "Cell cycle analysis (Muse cell analyser)", "details": "4 h", "procedure": "(§3) The effect of C1 on the cell cycle of C. albicans 4251 and C. albicans 5112 was determined using Cell Cycle kit MCH100106 in a Guava® Muse® Cell Analyser according to the manufacturer's instructions. The cells of the C. albicans (1×10^6 cells/mL) were exposed to C1 for 4 h at different concentrations (0.5×MIC and 1×MIC). Each sample was rinsed with fresh PBS after exposure, and the pellet was fixed in 1 mL of 70% ice-cold ethanol (Sigma Aldrich Co., USA). The Cell Cycle assay was prepared by mixing the 100 μL of Luminex® Cell Cycle dye and 100 μL of the prewashed fixed cells and incubated in the dark for 30 minutes at room temperature. All samples were analysed by a Guava® Muse® Cell Analyser (Luminex® A DiaSorin Company, USA). During the experiment, both the negative (without treatment) and positive control (10 mM H2O2 treated) were used."}, "C. albicans 5112 [4]": {"system": "C. albicans 5112", "experiment": "Cell cycle analysis (Muse cell analyser)", "details": "4 h", "procedure": "as §3"}}, "data": [{"molecule": "Brc1ccc([O][Co][O]c2ccc(Br)cc2C=Nc2ccc3c(c2)OCCO3)c(C=Nc2ccc3c(c2)OCCO3)c1", "note": "[Complex C1, [Co(L)2]]", "values": [{"measurement": "Median MIC", "setting": "C. albicans 4085; 37° C., 24 h", "value": 9.76, "unit": "µg/mL"}, {"measurement": "Median MFC", "setting": "C. albicans 4085; killing ≥99.9%", "value": 19.53, "unit": "µg/mL"}, {"measurement": "Median MIC", "setting": "C. albicans 4106; 37° C., 24 h", "value": 9.76, "unit": "µg/mL"}, {"measurement": "Median MFC", "setting": "C. albicans 4106; killing ≥99.9%", "value": 19.53, "unit": "µg/mL"}, {"measurement": "Median MIC", "setting": "C. albicans 4175; 37° C., 24 h", "value": 1.22, "unit": "µg/mL"}, {"measurement": "Median MFC", "setting": "C. albicans 4175; killing ≥99.9%", "value": 2.44, "unit": "µg/mL"}, {"measurement": "Median MIC", "setting": "C. albicans 4180; 37° C., 24 h", "value": 2.44, "unit": "µg/mL"}, {"measurement": "Median MFC", "setting": "C. albicans 4180; killing ≥99.9%", "value": 4.88, "unit": "µg/mL"}, {"measurement": "Median MIC", "setting": "C. albicans 4251 [1]; 37° C., 24 h", "value": 4.88, "unit": "µg/mL"}, {"measurement": "Median MFC", "setting": "C. albicans 4251 [1]; killing ≥99.9%", "value": 9.76, "unit": "µg/mL"}, {"measurement": "Median MIC", "setting": "C. albicans 4324; 37° C., 24 h", "value": 9.76, "unit": "µg/mL"}, {"measurement": "Median MFC", "setting": "C. albicans 4324; killing ≥99.9%", "value": 19.53, "unit": "µg/mL"}, {"measurement": "Median MIC", "setting": "C. albicans 4554; 37° C., 24 h", "value": 2.44, "unit": "µg/mL"}, {"measurement": "Median MFC", "setting": "C. albicans 4554; killing ≥99.9%", "value": 4.88, "unit": "µg/mL"}, {"measurement": "Median MIC", "setting": "C. albicans 5112 [2]; 37° C., 24 h", "value": 19.53, "unit": "µg/mL"}, {"measurement": "Median MFC", "setting": "C. albicans 5112 [2]; killing ≥99.9%", "value": 78.12, "unit": "µg/mL"}, {"measurement": "Median MIC", "setting": "C. albicans SC5314; 37° C., 24 h", "value": 2.44, "unit": "µg/mL"}, {"measurement": "Median MFC", "setting": "C. albicans SC5314; killing ≥99.9%", "value": 4.88, "unit": "µg/mL"}, {"measurement": "cells in G0/G1 phase", "setting": "C. albicans 4251 [3]; C. albicans 4251 (Flz sensitive), 0.5×MIC", "value": 62, "unit": "%"}, {"measurement": "cells in G0/G1 phase", "setting": "C. albicans 4251 [3]; C. albicans 4251, 1×MIC", "value": 96.55, "unit": "%"}, {"measurement": "cells in G0/G1 phase", "setting": "C. albicans 5112 [4]; C. albicans 5112 (Flz resistant), 0.5×MIC", "value": 50.8, "unit": "%"}, {"measurement": "cells in G0/G1 phase", "setting": "C. albicans 5112 [4]; C. albicans 5112, 1×MIC", "value": 94.1, "unit": "%"}]}]}
